Where a SMILES comes first, the peptide text is derived from it.
Tests used:
NF-κB = NF-κB promoter activity, luciferase reporter assay in RAW 264.7 cells; type: cell-based, mouse; conditions: n = 6
Protocol: A luciferase reporter assay was used to detect the promoter activity of NF-κB. RAW 264.7 cells were seeded in a 24-well plate for 24 h and then cotransfected with 800 ng/well of the NF-κB reporter plasmid (pGL3-Basic) and 20 ng/well of pLR-TK. WT […] luciferase (Rluc) served as the reporter gene control vector. […] In the inhibition assay, the cells were pre-treated with 1 μg/ml TLR4 inhibitor for 1 h and treated with LPS (1 μg/ml) alone or together with PBD-2 (10 μg/mL) for 24 h (n = 6 each group). Luciferase units were detected to show the promoter activity of NF-κB ([28]).

[1] = type: biochemical, Escherichia coli O55:B5; conditions: PBD-2 1, 5, and 10 μg/ml mixed with LPS, 37°C, 10 min; n = 6
[2] = transgenic expression; ref [24]; cited from earlier work
[3] = PBD-2 expressed in TG mice, uninfected, n ≥ 6, vs WT
Protocol: After the mice were euthanized, blood samples of TG and WT mice were collected. Alanine aminotransferase, aspartate aminotransferase, albumin, globin, albumin/globin, total bilirubin, direct bilirubin, urea, creatinine, urea/creatinine, glucose, potassium, and sodium were analyzed using a blood routine analyser (Mindray, Shenzhen China). Their heart, liver, spleen, lung, kidney, brain and intestinal segments were harvested. The histological morphologies of the mice organs and the body and organ weights of male and female mice were characterized.
(B) Comparison of body weights between TG and WT mice. (C) Comparison of weight ratios of organs, including heart, liver, spleen, lung, kidney, and brain (organ weight/body weight) between TG and WT mice. Data are represented as means ± SD (WT, n ≥ 6; TG, n ≥ 6).

S. Typhimurium [4] = test: Bactericidal activity assay (colony counting); conditions: 5000 CFU, 1 h, 37°C, n = 6
Protocol: S. Typhimurium cells were cultured to mid-log phase (OD600nm = 0.7) in TSB. The cultures were centrifuged for 10 min at 1,000 × g, and the cell pellets were diluted in assay medium (10 mM phosphate, pH 7.0, with 1/100 TSB). The antimicrobial activities of PBD-2, TG serum and tissue homogenates were determined by colony counting assay. The mice serum, caecum, colon, or duodenum homogenates were heat inactivated at 56°C for 20 min to exclude the possible effect of complement in tissues. As a control, PBD-2 solution in PBS (50 μg/ml) was also heat-treated at 56°C for 20 min. Afterwards, 5000 CFUs of S. Typhimurium were mixed with 100 μl of each sample in a centrifuge tube at 37°C for 1 h. After incubation, 10 serial dilutions from 10 to 1,000-fold in TSB were conducted, and the diluted bacterial cultures were transferred onto TSA plates and incubated at 37°C for 24 h. The numbers of bacterial CFUs were recorded.

TLR4 [5] = test: Interaction of PBD-2 with TLR4 in RAW 264.7 cells, coimmunoprecipitation; type: binding, mouse; conditions: PBD-2 1, 10, 30, and 50 μg/ml, 16 h, captured with PBD-2 antisera
Protocol: A Co-IP assay was conducted using a Co-IP kit (# abs955, Absin®, Shanghai, China) in accordance with the manufacturer's instructions. In brief, RAW 264.7 cells were cultured in dishes of 10 cm in diameter. The cells (1 × 10^7) were treated with different concentrations of PBD-2 (1, 10, 30, and 50 μg/ml) for 16 h and lysed using a lysis buffer that contained protease inhibitors […]. The soluble faction of the cell lysate was collected after centrifugation at 14,000 × g at 4°C for 10 min. Afterwards, 2 μl of PBD-2 antisera (with titer 1:500,000) or 2 μl of mouse IgG antisera (# sc-2025, Santa Cruz®, CA, USA) as control were incubated with 200 μg of the cell lysate at 4°C for 12 h. Protein A/G beads (5 μl) were added and incubated at 4°C for 12 h. The precipitates with the immune complexes were collected by centrifugation at 12,000 × g at 4°C for 1 min. The beads were washed with a wash buffer. TLR4 in the precipitates was detected with Western blot by using an antibody against TLR4 (# sc-293072, Santa Cruz®, Santa Cruz, CA, USA).

RAW 264.7 cells = test: Cytokine levels of RAW 264.7 cells after treatment with S. Typhimurium (ELISA); type: cell-based, mouse; conditions: S. Typhimurium MOI = 10:1, 1 h, n = 6
Protocol: RAW 264.7 cells and RAW 264.7 cells stably expressing PBD-2 were pre-treated with S. Typhimurium at MOI = 10:1 for 1 h or with LPS (1 μg/ml) for 16 h, washed with PBS twice and incubated with RPMI 1640 that contained PBS or PBD-2 (10 μg/mL) for 16 h. RAW 264.7 cells stably expressing PBD-2 were maintained in RPMI 1640 that contained PBS for 16 h (n = 6 for each group). The expression levels of proinflammatory cytokines in the cell culture supernatant were determined through ELISA in accordance with the manufacturer's instruction.

TLR4 [6] = molecular target: T1, TLR4 (Mus musculus, UniProt Q9QUK6); test: Interaction with TLR4, far-Western blot; type: binding; conditions: PBD-2 10 μg/ml, 37°C, 2 h
T1 construct: purchased Cloud-clone, Wuhan, China RPA753Mu01
Protocol: TLR4 and BSA proteins as a control were subject to SDS-PAGE and electro-transferred onto a PVDF membrane. The PVDF membrane was blocked with 10 μg/ml BSA in PBST at 37°C for 2 h, washed five times with PBST and incubated with PBST that contained 10 μg/ml PBD-2 or 10 μg/ml BSA as a control at 37°C for 2 h. After the membranes were washed, the PVDF membrane was incubated with anti-PBD-2 antisera (with a titer 1:500,000) at 37°C for 2 h and washed five times with PBST. The membrane was then incubated with the secondary antibodies, namely, goat anti-mouse IgG (# AS003, ABclonal®, Wuhan, China), at 37°C for 2 h and washed five times with PBST. Lastly, immune-reactive bands were detected using an ECF Western blot system (Tanon 5200 Multi, Shanghai, China).

S. Typhimurium [7] = test: Histopathology of caecum of mice infected with S. Typhimurium; conditions: PBD-2 expressed in TG mice; oral 2.5 × 10^8 CFU; 24 h post-infection; H&E; vs WT
Protocol: Four infection experiments were conducted to determine the resistance to S. Typhimurium of the TG mice. For body weight measurements, 7 WT and 7 TG mice were orally administered with 2.5 × 10^8 CFU of S. Typhimurium, and the body weight of each mouse was measured on days 1, 2, 3, 4, and 5 after infection. For the detection of the tissue weight ratios, bacterial loads in tissues and tissue lesions after S. Typhimurium infection, 9 WT and 8 TG mice were orally administered with 2.5 × 10^8 CFU of S. Typhimurium. The spleen, caecum and body weights of the mice were weighed at 24 h post-infection. The bacterial loads in the tissues were also measured ([26]). The spleen and caecum were weighed and homogenized in cold PBS at a ratio of 4 ml per gram of tissue and coated plates. The bacterial numbers in the homogenates were counted by serially diluting the homogenates and spreading on plates. Caeca were harvested for histopathological analysis by using the methods described above. The intestinal damage, including epithelial damage, submucosal oedema, and neutrophil aggregation, was observed.

[8] = ref [11]; cited from earlier work
bacteria = conditions: ref [11], cited from earlier work
Text: Another fact is that some vi ...

[9] = test system: LPS-induced production of cytokines; test: Serum cytokine levels of mice injected with LPS (ELISA); type: in vivo, mouse; conditions: 1 h, n = 6
Protocol: Six TG mice and six WT mice were separately injected with LPS (16 mg/kg body weight) intraperitoneally. The same number of TG mice and WT mice was injected with 100 μl of sterile PBS as a negative control. The sera from the mice in each group were collected 1 h after the injection to detect cytokines by ELISA.
The WT mice were injected with LPS alone or LPS with PBD-2 (0.5 mg/kg body weight) intraperitoneally (n = 6 each group) to detect the effect of synthetic PBD-2 on inflammation induced by LPS. The sera from the mice in each group were collected 1 h after the injection to detect the cytokines by ELISA.

[10] = PBD-2 expressed by RAW 264.7–PBD-2 cells
[11] = PBD-2 expressed in TG mice, LPS 16 mg/kg i.p., vs WT
[12] = synthetic PBD-2 0.5 mg/kg i.p. with LPS 16 mg/kg, WT mice, vs LPS alone

T1 sequence (Q9QUK6 26-835): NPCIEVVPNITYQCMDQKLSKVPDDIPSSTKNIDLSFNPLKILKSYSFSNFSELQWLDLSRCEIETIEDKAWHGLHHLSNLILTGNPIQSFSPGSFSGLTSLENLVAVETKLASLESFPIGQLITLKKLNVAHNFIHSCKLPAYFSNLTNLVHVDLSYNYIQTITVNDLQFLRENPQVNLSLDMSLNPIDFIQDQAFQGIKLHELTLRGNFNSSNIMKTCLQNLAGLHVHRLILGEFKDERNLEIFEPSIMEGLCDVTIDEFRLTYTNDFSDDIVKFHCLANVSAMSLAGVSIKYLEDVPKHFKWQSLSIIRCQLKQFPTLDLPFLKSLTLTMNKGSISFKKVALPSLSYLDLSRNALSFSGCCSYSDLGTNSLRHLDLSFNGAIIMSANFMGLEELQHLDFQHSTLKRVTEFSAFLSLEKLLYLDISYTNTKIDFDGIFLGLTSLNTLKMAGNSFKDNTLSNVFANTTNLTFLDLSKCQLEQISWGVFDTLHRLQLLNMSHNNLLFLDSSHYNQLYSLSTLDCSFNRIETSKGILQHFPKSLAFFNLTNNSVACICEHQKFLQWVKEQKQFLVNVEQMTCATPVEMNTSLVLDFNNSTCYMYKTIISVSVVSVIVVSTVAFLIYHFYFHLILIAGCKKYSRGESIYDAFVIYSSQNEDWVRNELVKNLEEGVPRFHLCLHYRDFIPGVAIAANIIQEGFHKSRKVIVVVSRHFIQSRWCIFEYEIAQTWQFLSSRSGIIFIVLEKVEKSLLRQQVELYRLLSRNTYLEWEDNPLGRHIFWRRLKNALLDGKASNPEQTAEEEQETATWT

With CC[C@H](C)[C@H](NC(=O)[C@@H]1CSSC[C@@H]2NC(=O)[C@@H]3CCCN3C(=O)[C@H](CO)NC(=O)[C@H](Cc3ccccc3)NC(=O)[C@H](CC(N)=O)NC(=O)[C@@H]3CSSC[C@H](NC(=O)[C@H]([C@@H](C)O)NC(=O)CNC(=O)[C@H](CCC(=O)O)NC(=O)[C@H]([C@@H](C)CC)NC(=O)[C@H](CCCNC(=N)N)NC(=O)[C@H](CC(N)=O)NC(=O)[C@H](Cc4ccccc4)NC(=O)[C@H](CC(C)C)NC(=O)[C@@H]4CCCN4C2=O)C(=O)N[C@@H](Cc2ccc(O)cc2)C(=O)N[C@@H](CO)C(=O)NCC(=O)N[C@@H](CCCCN)C(=O)N[C@@H](C)C(=O)N[C@@H](CCCCN)C(=O)N[C@@H](CSSC[C@H](NC(=O)[C@@H](NC(=O)[C@H](Cc2ccc(O)cc2)NC(=O)[C@H](Cc2c[nH]cn2)NC(=O)[C@@H](N)CC(=O)O)[C@@H](C)CC)C(=O)N[C@@H](C)C(=O)N[C@@H](CCCCN)C(=O)N[C@@H](CCCCN)C(=O)NCC(=O)NCC(=O)N[C@@H]([C@@H](C)O)C(=O)N3)C(=O)N1)C(=O)N[C@@H](CCCNC(=N)N)C(=O)O [PBD-2, Porcine beta-defensin 2] (HELM PEPTIDE1{D.H.Y.I.C.A.K.K.G.G.T.C.N.F.S.P.C.P.L.F.N.R.I.E.G.T.C.Y.S.G.K.A.K.C.C.I.R}$PEPTIDE1,PEPTIDE1,5:R3-34:R3|PEPTIDE1,PEPTIDE1,12:R3-27:R3|PEPTIDE1,PEPTIDE1,17:R3-35:R3$$$V2.0; N-terminus and C-terminus assumed) the “NF-κB promoter activity after LPS induction” value (NF-κB; LPS 1 μg/ml with PBD-2 10 μg/mL, 24 h) was “inhibited the promoter activities of NF-κB after LPS induction (p < 0.01)”, the “NF-κB promoter activity in the presence of TLR4 inhibitor” value (NF-κB; PBD-2 10 μg/mL with LPS 1 μg/ml, 24 h, after CLI-095 1 μg/ml) was “did not influence the NF-κB promoter activity in the presence of TLR4 inhibitor (NS, p > 0.05)” and the “inhibitory effect on NF-κB promoter activity after pre-incubation with PBD-2” value (NF-κB; PBD-2 10, 30, and 60 μg/ml for 30, 60, 120, or 240 min, then LPS) was “positively correlated with dose and incubation time with PBD-2 (p < 0.05)”. The “endotoxic activity of LPS” value [1] was “did not affect the endotoxic activity of LPS”, the “expression level of PBD-2 in the TG mice” value [2] was ≤ 10^4 ng/g tissue and the “ratio of organ weight to total body weight” value ([3]; heart, liver, spleen, lung, kidney, brain) was “did not significantly differ from the WT mice in terms of body weight (Figure S1B) and the ratio of organ weight to total body weight”. The body weight [3] was “did not significantly differ from the WT mice in terms of body weight”, the “number of survived bacteria, caecum homogenate” value (S. Typhimurium [4]; heat-inactivated (56°C, 20 min) caecum homogenate of PBD-2 TG mice vs WT) was “the number of the survived bacteria in the serum and tissue homogenates of the WT mice was significantly higher than that in the serum and tissue homogenates of the TG mice (p < 0.05)” and the “number of survived bacteria, colon homogenate” value (S. Typhimurium [4]; heat-inactivated (56°C, 20 min) colon homogenate of PBD-2 TG mice vs WT) was “the number of the survived bacteria in the serum and tissue homogenates of the WT mice was significantly higher than that in the serum and tissue homogenates of the TG mice (p < 0.05)”. For the same molecule, the “number of survived bacteria, serum” value (S. Typhimurium [4]; heat-inactivated (56°C, 20 min) serum of PBD-2 TG mice vs WT) was “the number of the survived bacteria in the serum and tissue homogenates of the WT mice was significantly higher than that in the serum and tissue homogenates of the TG mice (p < 0.05)”, the “coimmunoprecipitation of TLR4 with PBD-2” value (TLR4 [5]) was “could react with the antibody against TLR4” and the “level of IL-1β” value (RAW 264.7 cells; [10]) was “significantly lower in the RAW 264.7–PBD-2 cells than in the RAW 264.7 cells after S. Typhimurium treatment (p < 0.01)”. The “level of IL-6” value (RAW 264.7 cells; [10]) was “significantly lower in the RAW 264.7–PBD-2 cells than in the RAW 264.7 cells after S. Typhimurium treatment (p < 0.01)”, the “level of TNF-α” value (RAW 264.7 cells; [10]) was “significantly lower in the RAW 264.7–PBD-2 cells than in the RAW 264.7 cells after S. Typhimurium treatment (p < 0.01)” and the “secretion of IL-1β” value (RAW 264.7 cells; synthetic PBD-2 10 μg/mL, 16 h) was “significantly inhibited the secretion of TNF-α, IL-6, and IL-1β after S. Typhimurium treatment (p < 0.05)”. For the same molecule, the “secretion of IL-6” value (RAW 264.7 cells; synthetic PBD-2 10 μg/mL, 16 h) was “significantly inhibited the secretion of TNF-α, IL-6, and IL-1β after S. Typhimurium treatment (p < 0.05)”, the “secretion of TNF-α” value (RAW 264.7 cells; synthetic PBD-2 10 μg/mL, 16 h) was “significantly inhibited the secretion of TNF-α, IL-6, and IL-1β after S. Typhimurium treatment (p < 0.05)” and the “binding to TLR4 on PVDF membrane” value (TLR4 [6]) was “could bind to TLR4”. For the same molecule, the “intestinal damage of the caecum (epithelial damage and submucosal oedema)” value (S. Typhimurium [7]) was “significantly milder intestinal damage (epithelial damage and submucosal oedema)”, the “neutrophil aggregation in the caecum” value (S. Typhimurium [7]) was “less neutrophil aggregation compared with that of the WT mice” and the hemolytic activity [8] was “limited hemolytic activity”. The “antibacterial activity, concentration dependence” value (bacteria; in vitro) was “positively related to its concentration”, the “bactericidal activity in vitro” value (bacteria) was “high and broad spectrum of bactericidal activity in vitro” and the “LPS-induced IL-1β in serum” value [9, 11] was “significantly lower in the TG mice than in the WT mice (p < 0.05)”. For the same molecule, the “LPS-induced IL-6 in serum” value [9, 11] was “significantly lower in the TG mice than in the WT mice (p < 0.05)”, the “LPS-induced IL-12 in serum” value [9, 11] was “significantly lower in the TG mice than in the WT mice (p < 0.05)” and the “LPS-induced TNF-α in serum” value [9, 11] was “significantly lower in the TG mice than in the WT mice (p < 0.05)”. The “LPS-induced IL-1β in serum” value [9, 12] was “significantly lower levels of secreted TNF-α, IL-6, IL-1β, and IL-12 than those injected with LPS alone (p < 0.05)”, the “LPS-induced IL-6 in serum” value [9, 12] was “significantly lower levels of secreted TNF-α, IL-6, IL-1β, and IL-12 than those injected with LPS alone (p < 0.05)” and the “LPS-induced IL-12 in serum” value [9, 12] was “significantly lower levels of secreted TNF-α, IL-6, IL-1β, and IL-12 than those injected with LPS alone (p < 0.05)”. For the same molecule, the “LPS-induced TNF-α in serum” value [9, 12] was “significantly lower levels of secreted TNF-α, IL-6, IL-1β, and IL-12 than those injected with LPS alone (p < 0.05)”.

— paper PMC6657668, “Porcine Beta-Defensin 2 Provides Protection Against Bacterial Infection by a Direct Bactericidal Activity and Alleviates Inflammation via Interference With the TLR4/NF-κB Pathway” (Frontiers in Immunology, 2019)
